# Laboratory results reported in patent US9701659B2, “Insecticidally active amide derivatives with sulfur-substituted phenyl or pyridine groups” (Syngenta Participations AG, priority 2014, dated 2017).
# Experiments:
# [1] = tested on: Diabrotica balteata (corn root worm); experiment: Example B4: activity against Diabrotica balteata, larvae L2 on maize sprouts, feeding/contact, preventative; type: in vivo; settings: 120 h, 5 days incubation, read-out: activity (larval mortality, growth regulation)
# Experimental: Activity Against Diabrotica Balteata (Corn Root Worm)
# (Larvae L2 on Maize Sprouts, Feeding/Contact, Preventative)
# Maize sprouts, placed on an agar layer in 24 well micro titer plates were treated with test solutions by spraying. After drying, the MTPs were infested with L2 larvae (6-10 per well). After an incubation period of 5 days, samples were checked for larval mortality and growth regulation.
# [2] = tested on: Spodoptera littoralis (Egyptian cotton leaf worm); experiment: Example B1: activity against Spodoptera littoralis, larvicide, feeding/residual contact, preventive (cotton leaf discs); type: in vivo; settings: foliar, 72 h, L1 larvae, 3 days after treatment, read-out: activity (mortality, repellent effect, feeding behaviour, growth regulation)
# Excerpt: Activity Against Spodoptera littoralis (Egyptian Cotton Leaf Worm)
# (§1) (Larvicide, Feeding/Residual Contact Activity, Preventive)
# Cotton leaf discs were placed on agar in a 24-well microtiter plate and sprayed with test solutions. After drying, the leaf discs were infested with 5 L1 larvae. The samples were checked for mortality, repellent effect, feeding behaviour, and growth regulation 3 days after treatment (DAT).
# [3] = tested on: Myzus persicae (green peach aphid); experiment: Example B6: activity against Myzus persicae, feeding activity sachet test, mixed population; type: in vivo; settings: 120 h, 5 days after infestation
# Excerpt: (§2) Activity Against Myzus persicae (Green Peach Aphid)
# (Feeding Activity Sachet Test), Mixed Population
# Test compounds were applied by pipette into 24 well plates and mixed with Sucrose solution. The plates were closed with a stretched Parafilm. A plastic stencil with 24 holes is placed onto the plate and infested pea seedlings were placed directly on the Parafilm. The infested plate is closed with a gel blotting paper and another plastic stencil and then turned upside down. 5 days after infestation the samples were checked on mortality. Application rate: 12.5 ppm.
# [4] = tested on: Aedes aegypti (yellow fever mosquito); experiment: Example B9: activity against Aedes aegypti, adult females on treated plates; type: in vivo; settings: 200 ppm in ethanol; after 48 hours
# Experimental: Activity Against Aedes aegypti (Yellow Fever Mosquito)
# Test solutions, at an application rate of 200 ppm in ethanol, were applied to 12-well tissue culture plates. Once the deposits were dry, five, two to five days old adult female Aedes aegypti were added to each well, and sustained with a 10% sucrose solution in a cotton wool plug. Assessment of knockdown was made one hour after introduction, and mortality was assessed at 24 and 48 hours after introduction.
# [5] = tested on: Myzus persicae (green peach aphid); experiment: Example B5: activity against Myzus persicae, feeding/residual contact, preventive, mixed population (sunflower leaf discs); type: in vivo; settings: foliar, 144 h, mixed ages, 6 DAT, read-out: activity (mortality, special effects)
# Experimental: as §2
# (Feeding/Residual Contact Activity, Preventive), Mixed Population
# Sunflower leaf discs were placed on agar in a 24-well microtiter plate and sprayed with test solutions. After drying, the leaf discs were infested with an aphid population of mixed ages. After an incubation period of 6 DAT, samples were checked for mortality and special effects (e.g. phytotoxicity).
# [6] = tested on: Plutella xylostella (diamond back moth); experiment: Example B3: activity against Plutella xylostella, larvicide, feeding/residual contact, preventive (artificial diet); type: in vivo; settings: 120 h, L2 larvae, 5 days incubation, read-out: activity (larval mortality, antifeedant, growth regulation)
# Experimental: Activity Against Plutella xylostella (Diamond Back Moth)
# as §1
# 24-well microtiter plate (MTP) with artificial diet was treated with test solutions by pipetting. After drying, the MTPs were infested with L2 larvae (10-15 per well). After an incubation period of 5 days, samples were checked for larval mortality, antifeedant and growth regulation.
# [7] = tested on: Myzus persicae (green peach aphid); experiment: Example B7: activity against Myzus persicae, systemic/feeding activity, curative, mixed population (pea seedlings); type: in vivo; settings: 144 h, roots in test solution, 6 days after introduction, read-out: activity (mortality, special effects on the plant)
# Excerpt: as §2
# (Systemic/Feeding Activity, Curative), Mixed Population
# Roots of pea seedlings, infested with an aphid population of mixed ages, were placed directly in the test solutions. 6 days after introduction, samples were checked for mortality and special effects on the plant.
compound,measurement,setting,value
CCS(=O)(=O)c1cc(C(F)(F)F)ccc1C(=O)/N=c1\sc(C(F)(F)F)nn1C,melting point,,195 to 197 °C
CCS(=O)(=O)c1cc(C(F)(F)F)cnc1C(=O)/N=c1\sc(C(F)(F)C(F)(F)F)nn1C,melting point,,123 to 125 °C
CCS(=O)(=O)c1cc(C(F)(F)F)cnc1C(=O)/N=c1\cc(C(F)(F)F)ccn1C,melting point,,153 to 155 °C
CCS(=O)(=O)c1cc(C(F)(F)F)cnc1C(=O)/N=c1\ccc(SC(F)(F)F)cn1C,melting point,,167 to 169 °C
CCS(=O)(=O)c1cc(C(F)(F)F)cnc1C(=O)/N=c1\scc(C(F)(F)F)n1C,melting point,,163 to 165 °C
"CCS(=O)(=O)c1cc(C(F)(F)F)cnc1C(=O)/N=c1\sc(C(F)(F)F)cn1C [P1, (N)-3-ethylsulfonyl-N-[3-methyl-5-(trifluoromethyl)thiazol-2-ylidene]-5-(trifluoromethyl)pyridine-2-carboxamide]",mortality at 400 ppm,[1],> 80%
same,mortality at 400 ppm,[2],> 80%
"CCSc1cccnc1C(=O)/N=c1\sc(C(F)(F)F)nn1C [P3, (N)-3-ethylsulfanyl-N-[3-methyl-5-(trifluoromethyl)-1,3,4-thiadiazol-2-ylidene]pyridine-2-carboxamide]",mortality at 12.5 ppm,[3],≥ 80%
same,control of Aedes aegypti,[4],at least 80%
same,mortality at 400 ppm,[5],> 80%
same,mortality at 400 ppm,[1],> 80%
CCSc1cc(C(F)(F)F)cnc1C(=O)/N=c1\sc(C(F)(F)F)nn1C [P4],mortality at 400 ppm,[6],> 80%
same,mortality at 400 ppm,[1],> 80%
same,mortality at 400 ppm,[2],> 80%
"CCS(=O)(=O)c1cccnc1C(=O)/N=c1\sc(C(F)(F)F)nn1C [P5, (N)-3-ethylsulfonyl-N-[3-methyl-5-(trifluoromethyl)-1,3,4-thiadiazol-2-ylidene]pyridine-2-carboxamide]",mortality at 24 ppm,[7],≥ 80%
same,mortality at 400 ppm,[5],> 80%
CCS(=O)(=O)c1cc(C(F)(F)F)cnc1C(=O)/N=c1\sc(C(F)(F)F)nn1C [P6],mortality at 400 ppm,[6],> 80%
same,mortality at 400 ppm,[1],> 80%
same,mortality at 400 ppm,[2],> 80%
CCS(=O)(=O)c1cc(C(F)(F)F)cnc1C(=O)/N=c1\ccc(C(F)(F)F)nn1C [P9],mortality at 400 ppm,[5],> 80%
